The values that follow come from PMC9986241 (Signal Transduction and Targeted Therapy, 2023).

What all share (assay): KinaseProfiler enzyme profiling
Holding throughout (assay type): biochemical

One experiment has as its target T1, Rsk2(h) (Homo sapiens, UniProt P51812).
T1 construct: purchased Eurofins KinaseProfiler
In outline:
(§1)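 A 70-kinase in vitro panel received erianin at 100 nM; measurements were repeated twice.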

The target in a further experiment is T2, Rsk3(h) (Homo sapiens, UniProt Q15349).
T2 construct: purchased Eurofins KinaseProfiler
Particulars: 100 nM. In outline:
(§2)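 In this commercial enzyme profiling, 70 kinases were assayed in vitro with erianin present at 100 nM. Results come from two repetitions.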

A further experiment concerns the target T3, EphA4(h) (Homo sapiens, UniProt P54764).
T3 construct: purchased Eurofins KinaseProfiler
Particulars: 100 nM. Put shortly:
as §2

The next experiment deals with T4, Rsk1(h) (Homo sapiens, UniProt Q15418).
T4 construct: purchased Eurofins KinaseProfiler
In outline: as §1

For the next experiment, the target named is T5, Snk(h) (Homo sapiens, UniProt Q9NYY3).
T5 construct: purchased Eurofins KinaseProfiler
Particulars: 100 nM. In outline:
as §2

Another experiment has as its target T6, CaMKIIα(h) (Homo sapiens, UniProt Q9UQM7).
T6 construct: purchased Eurofins KinaseProfiler
Particulars: 100 nM. Put shortly:
as §2

A further experiment deals with T7, EphA1(h) (Homo sapiens, UniProt P21709).
T7 construct: purchased Eurofins KinaseProfiler
Particulars: 100 nM. Put shortly: as §2

The target in the next experiment is T8, EphA5(h) (Homo sapiens, UniProt P54756).
T8 construct: purchased Eurofins KinaseProfiler
Particulars: 100 nM. In outline:
as §2

In the next experiment the target is T9, SGK(h) (Homo sapiens, UniProt O00141).
T9 construct: purchased Eurofins KinaseProfiler
Particulars: 100 nM. In outline:
as §2

In the next experiment the target is T10, EphB3(h) (Homo sapiens, UniProt P54753).
T10 construct: purchased Eurofins KinaseProfiler
Particulars: 100 nM. Put shortly: as §2

The target in another experiment is T11, CaMKIIδ(h) (Homo sapiens, UniProt Q13557).
T11 construct: purchased Eurofins KinaseProfiler
Particulars: 100 nM. In outline: as §2

The target of a further experiment is T12, ZIPK(h) (Homo sapiens, UniProt O43293).
T12 construct: purchased Eurofins KinaseProfiler
Particulars: 100 nM. Put shortly: as §2

In a further experiment the target is T13, FGFR4(h) (Homo sapiens, UniProt P22455).
T13 construct: purchased Eurofins KinaseProfiler
T13 sequence (P22455 22-802): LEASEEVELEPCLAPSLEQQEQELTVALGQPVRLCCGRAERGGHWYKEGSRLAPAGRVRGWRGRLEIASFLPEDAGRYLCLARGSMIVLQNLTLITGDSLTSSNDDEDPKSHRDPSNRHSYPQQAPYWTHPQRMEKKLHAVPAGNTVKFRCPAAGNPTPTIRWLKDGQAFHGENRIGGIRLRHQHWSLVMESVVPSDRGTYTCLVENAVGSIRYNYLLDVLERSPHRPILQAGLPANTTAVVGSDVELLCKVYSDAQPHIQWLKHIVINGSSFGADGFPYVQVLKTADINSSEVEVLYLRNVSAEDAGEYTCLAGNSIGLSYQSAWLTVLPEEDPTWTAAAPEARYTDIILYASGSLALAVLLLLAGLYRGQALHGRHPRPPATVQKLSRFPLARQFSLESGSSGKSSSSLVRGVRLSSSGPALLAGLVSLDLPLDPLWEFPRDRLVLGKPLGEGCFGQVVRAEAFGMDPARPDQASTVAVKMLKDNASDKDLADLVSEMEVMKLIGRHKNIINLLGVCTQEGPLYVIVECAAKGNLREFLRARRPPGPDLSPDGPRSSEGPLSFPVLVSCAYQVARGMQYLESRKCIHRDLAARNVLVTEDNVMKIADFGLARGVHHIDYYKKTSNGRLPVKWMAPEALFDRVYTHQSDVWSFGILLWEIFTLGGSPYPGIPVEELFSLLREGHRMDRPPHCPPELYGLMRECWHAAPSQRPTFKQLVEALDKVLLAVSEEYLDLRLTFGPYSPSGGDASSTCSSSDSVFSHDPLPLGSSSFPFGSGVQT
In outline:
as §2

Another experiment concerns the target T14, CaMKIIβ(h) (Homo sapiens, UniProt Q13554).
T14 construct: purchased Eurofins KinaseProfiler
In outline: as §2

The target in another experiment is T15, Aurora-A(h) (Homo sapiens, UniProt O14965).
T15 construct: purchased Eurofins KinaseProfiler
Put shortly: as §2

In the next experiment the target is T16, Aurora-B(h) (Homo sapiens, UniProt Q96GD4).
T16 construct: purchased Eurofins KinaseProfiler
Put shortly: as §2

In the next experiment the target is T17, CK1γ2(h) (Homo sapiens, UniProt P78368).
T17 construct: purchased Eurofins KinaseProfiler
Put shortly:
as §2

Another experiment has as its target T18, EGFR(T790M)(h) (Homo sapiens, UniProt P00533, T790M).
T18 construct: purchased Eurofins KinaseProfiler
In outline: as §2

Another experiment addresses T19, BRK(h) (Homo sapiens, UniProt Q13882).
T19 construct: purchased Eurofins KinaseProfiler
Put shortly: as §2

The target in the next experiment is T20, Flt4(h) (Homo sapiens, UniProt P35916).
T20 construct: purchased Eurofins KinaseProfiler
T20 sequence (P35916 25-1363): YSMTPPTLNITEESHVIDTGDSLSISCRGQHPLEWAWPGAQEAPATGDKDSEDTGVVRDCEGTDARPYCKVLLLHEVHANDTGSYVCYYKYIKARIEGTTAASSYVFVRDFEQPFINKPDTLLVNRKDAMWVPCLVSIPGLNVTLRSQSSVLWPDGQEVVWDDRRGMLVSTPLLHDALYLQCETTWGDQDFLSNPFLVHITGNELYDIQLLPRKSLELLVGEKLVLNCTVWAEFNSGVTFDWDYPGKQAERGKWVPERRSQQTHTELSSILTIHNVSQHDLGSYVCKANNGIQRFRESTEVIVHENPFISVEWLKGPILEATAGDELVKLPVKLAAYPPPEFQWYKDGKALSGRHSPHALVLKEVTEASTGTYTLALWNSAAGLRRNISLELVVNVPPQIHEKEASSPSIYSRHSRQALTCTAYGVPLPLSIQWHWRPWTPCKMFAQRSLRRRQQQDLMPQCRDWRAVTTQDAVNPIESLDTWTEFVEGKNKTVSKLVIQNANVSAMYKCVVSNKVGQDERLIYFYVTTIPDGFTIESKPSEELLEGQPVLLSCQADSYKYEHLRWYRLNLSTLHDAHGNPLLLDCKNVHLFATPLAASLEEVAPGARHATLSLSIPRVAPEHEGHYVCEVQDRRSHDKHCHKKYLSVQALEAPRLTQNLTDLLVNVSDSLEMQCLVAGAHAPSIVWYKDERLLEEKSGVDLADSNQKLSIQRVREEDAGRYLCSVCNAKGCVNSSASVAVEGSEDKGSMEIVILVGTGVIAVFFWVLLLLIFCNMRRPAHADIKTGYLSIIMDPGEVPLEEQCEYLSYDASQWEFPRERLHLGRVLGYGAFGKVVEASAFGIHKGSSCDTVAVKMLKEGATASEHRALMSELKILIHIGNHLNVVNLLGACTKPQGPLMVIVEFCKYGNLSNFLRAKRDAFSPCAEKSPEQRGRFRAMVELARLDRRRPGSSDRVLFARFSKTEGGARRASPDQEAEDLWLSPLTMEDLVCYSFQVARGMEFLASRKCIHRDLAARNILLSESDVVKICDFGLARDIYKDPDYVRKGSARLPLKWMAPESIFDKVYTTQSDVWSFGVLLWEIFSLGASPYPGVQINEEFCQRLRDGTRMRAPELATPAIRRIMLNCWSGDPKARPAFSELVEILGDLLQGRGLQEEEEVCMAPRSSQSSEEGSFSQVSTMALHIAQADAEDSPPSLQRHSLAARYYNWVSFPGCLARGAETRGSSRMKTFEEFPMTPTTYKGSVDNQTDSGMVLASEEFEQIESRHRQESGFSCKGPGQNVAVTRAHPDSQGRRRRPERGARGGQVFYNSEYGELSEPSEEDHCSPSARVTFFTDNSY
Put shortly: as §2

The next experiment concerns the target T21, Axl(h) (Homo sapiens, UniProt P30530).
T21 construct: purchased Eurofins KinaseProfiler
In outline:
as §2

For the next experiment, the target named is T22, DDR2(h) (Homo sapiens, UniProt Q16832).
T22 construct: purchased Eurofins KinaseProfiler
Put shortly: as §2

In a further experiment the target is T23, HIPK2(h) (Homo sapiens, UniProt Q9H2X6).
T23 construct: purchased Eurofins KinaseProfiler
Put shortly:
as §2

The target of the next experiment is T24, CDK7/cyclinH(h) (Homo sapiens, UniProt P50613).
T24 construct: purchased Eurofins KinaseProfiler
In outline:
as §2

For the next experiment, the target named is T25, MELK(h) (Homo sapiens, UniProt Q14680).
T25 construct: purchased Eurofins KinaseProfiler
In outline: as §2

The next experiment concerns the target T26, cKit(h) (Homo sapiens, UniProt P10721).
T26 construct: purchased Eurofins KinaseProfiler
Put shortly: as §2

The target of another experiment is T27, CK1γ3(h) (Homo sapiens, UniProt Q9Y6M4).
T27 construct: purchased Eurofins KinaseProfiler
T27 sequence (Q9Y6M4 whole entry): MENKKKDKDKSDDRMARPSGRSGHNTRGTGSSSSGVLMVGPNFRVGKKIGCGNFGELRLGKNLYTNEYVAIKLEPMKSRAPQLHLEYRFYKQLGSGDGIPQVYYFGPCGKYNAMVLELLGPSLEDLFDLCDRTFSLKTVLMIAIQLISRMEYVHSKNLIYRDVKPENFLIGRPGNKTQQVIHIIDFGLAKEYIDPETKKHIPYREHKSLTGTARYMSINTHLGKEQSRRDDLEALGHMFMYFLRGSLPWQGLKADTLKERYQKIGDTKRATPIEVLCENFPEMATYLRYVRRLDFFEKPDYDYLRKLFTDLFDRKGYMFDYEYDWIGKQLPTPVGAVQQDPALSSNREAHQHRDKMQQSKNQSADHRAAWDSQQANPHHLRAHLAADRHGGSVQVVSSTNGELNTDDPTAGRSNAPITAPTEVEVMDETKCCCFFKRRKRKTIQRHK
In outline:
as §2

In a further experiment the target is T28, HIPK3(h) (Homo sapiens, UniProt Q9H422).
T28 construct: purchased Eurofins KinaseProfiler
In outline:
as §2

Another experiment addresses T29, DAPK1(h) (Homo sapiens, UniProt P53355).
T29 construct: purchased Eurofins KinaseProfiler
Put shortly:
as §2

For a further experiment, the target named is T30, SAPK2b(h) (Homo sapiens, UniProt Q15759).
T30 construct: purchased Eurofins KinaseProfiler
Put shortly:
as §2

A further experiment deals with T31, STK25(h) (Homo sapiens, UniProt O00506).
T31 construct: purchased Eurofins KinaseProfiler
Put shortly: as §2

The next experiment has as its target T32, Lck(h) (Homo sapiens, UniProt P06239).
T32 construct: purchased Eurofins KinaseProfiler
Put shortly:
as §2

Another experiment has as its target T33, TAO2(h) (Homo sapiens, UniProt Q9UL54).
T33 construct: purchased Eurofins KinaseProfiler
Put shortly: as §2

The next experiment addresses T34, DMPK(h) (Homo sapiens, UniProt Q09013).
T34 construct: purchased Eurofins KinaseProfiler
Put shortly:
as §2

For another experiment, the target named is T35, CDK12/cyclinK(h) (Homo sapiens, UniProt Q9NYV4).
T35 construct: purchased Eurofins KinaseProfiler
Put shortly: as §2

The target of the next experiment is T36, ErbB2(h) (Homo sapiens, UniProt P04626).
T36 construct: purchased Eurofins KinaseProfiler
In outline: as §2

Another experiment concerns the target T37, TAO3(h) (Homo sapiens, UniProt Q9H2K8).
T37 construct: purchased Eurofins KinaseProfiler
In outline: as §2

A further experiment deals with T38, MAPKAP-K2(h) (Homo sapiens, UniProt P49137).
T38 construct: purchased Eurofins KinaseProfiler
In outline:
as §2

The target in the next experiment is T39, CDK2/cyclinE(h) (Homo sapiens, UniProt P24941).
T39 construct: purchased Eurofins KinaseProfiler
Put shortly:
as §2

A further experiment has as its target T40, CDK7/cyclinH/MAT1(h) (Homo sapiens, UniProt P50613).
T40 construct: purchased Eurofins KinaseProfiler
In outline: as §2

The target of the next experiment is T41, TAO1(h) (Homo sapiens, UniProt Q7L7X3).
T41 construct: purchased Eurofins KinaseProfiler
T41 sequence (Q7L7X3 whole entry): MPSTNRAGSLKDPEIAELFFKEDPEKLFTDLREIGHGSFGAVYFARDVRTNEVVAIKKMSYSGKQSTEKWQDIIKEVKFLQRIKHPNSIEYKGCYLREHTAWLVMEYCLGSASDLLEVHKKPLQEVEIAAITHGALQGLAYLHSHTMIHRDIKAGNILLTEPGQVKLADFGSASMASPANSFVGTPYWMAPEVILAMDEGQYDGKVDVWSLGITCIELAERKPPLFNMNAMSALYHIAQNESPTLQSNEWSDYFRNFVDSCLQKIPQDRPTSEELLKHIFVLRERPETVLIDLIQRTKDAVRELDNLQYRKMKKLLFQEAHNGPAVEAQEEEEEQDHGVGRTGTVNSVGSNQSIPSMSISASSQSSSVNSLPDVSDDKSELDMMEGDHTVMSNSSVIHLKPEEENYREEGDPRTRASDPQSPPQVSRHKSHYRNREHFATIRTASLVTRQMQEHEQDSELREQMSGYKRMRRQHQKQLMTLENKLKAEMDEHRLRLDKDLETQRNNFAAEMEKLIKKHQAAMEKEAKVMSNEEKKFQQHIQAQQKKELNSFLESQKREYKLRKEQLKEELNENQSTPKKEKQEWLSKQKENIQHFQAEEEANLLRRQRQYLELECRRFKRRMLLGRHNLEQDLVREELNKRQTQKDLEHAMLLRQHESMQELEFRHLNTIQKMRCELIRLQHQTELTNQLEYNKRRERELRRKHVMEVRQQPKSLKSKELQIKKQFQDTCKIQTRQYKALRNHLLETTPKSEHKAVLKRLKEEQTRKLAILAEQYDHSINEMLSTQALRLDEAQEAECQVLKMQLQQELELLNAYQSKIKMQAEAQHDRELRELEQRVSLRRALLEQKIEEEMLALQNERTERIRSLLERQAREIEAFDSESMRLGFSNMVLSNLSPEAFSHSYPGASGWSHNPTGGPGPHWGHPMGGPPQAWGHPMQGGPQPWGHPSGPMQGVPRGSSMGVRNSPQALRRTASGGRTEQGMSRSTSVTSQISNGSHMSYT
Put shortly: as §2

The target in a further experiment is T42, ATR/ATRIP(h) (Homo sapiens, UniProt Q13535).
T42 construct: purchased Eurofins KinaseProfiler
In outline:
as §2

T19 sequence (Q13882 whole entry): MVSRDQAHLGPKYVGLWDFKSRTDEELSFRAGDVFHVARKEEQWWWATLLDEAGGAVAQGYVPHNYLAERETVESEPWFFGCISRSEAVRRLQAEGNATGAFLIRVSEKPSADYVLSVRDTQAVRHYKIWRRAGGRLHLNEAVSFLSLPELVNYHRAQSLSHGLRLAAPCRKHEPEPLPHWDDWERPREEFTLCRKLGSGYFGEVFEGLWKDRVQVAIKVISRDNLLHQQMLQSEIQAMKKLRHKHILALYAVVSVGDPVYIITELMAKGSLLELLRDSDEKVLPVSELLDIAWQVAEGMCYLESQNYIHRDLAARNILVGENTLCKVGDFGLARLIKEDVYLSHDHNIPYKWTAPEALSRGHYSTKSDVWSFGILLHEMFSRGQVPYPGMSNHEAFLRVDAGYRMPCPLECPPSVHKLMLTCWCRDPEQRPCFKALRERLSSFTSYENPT
T21 sequence (P30530 26-894): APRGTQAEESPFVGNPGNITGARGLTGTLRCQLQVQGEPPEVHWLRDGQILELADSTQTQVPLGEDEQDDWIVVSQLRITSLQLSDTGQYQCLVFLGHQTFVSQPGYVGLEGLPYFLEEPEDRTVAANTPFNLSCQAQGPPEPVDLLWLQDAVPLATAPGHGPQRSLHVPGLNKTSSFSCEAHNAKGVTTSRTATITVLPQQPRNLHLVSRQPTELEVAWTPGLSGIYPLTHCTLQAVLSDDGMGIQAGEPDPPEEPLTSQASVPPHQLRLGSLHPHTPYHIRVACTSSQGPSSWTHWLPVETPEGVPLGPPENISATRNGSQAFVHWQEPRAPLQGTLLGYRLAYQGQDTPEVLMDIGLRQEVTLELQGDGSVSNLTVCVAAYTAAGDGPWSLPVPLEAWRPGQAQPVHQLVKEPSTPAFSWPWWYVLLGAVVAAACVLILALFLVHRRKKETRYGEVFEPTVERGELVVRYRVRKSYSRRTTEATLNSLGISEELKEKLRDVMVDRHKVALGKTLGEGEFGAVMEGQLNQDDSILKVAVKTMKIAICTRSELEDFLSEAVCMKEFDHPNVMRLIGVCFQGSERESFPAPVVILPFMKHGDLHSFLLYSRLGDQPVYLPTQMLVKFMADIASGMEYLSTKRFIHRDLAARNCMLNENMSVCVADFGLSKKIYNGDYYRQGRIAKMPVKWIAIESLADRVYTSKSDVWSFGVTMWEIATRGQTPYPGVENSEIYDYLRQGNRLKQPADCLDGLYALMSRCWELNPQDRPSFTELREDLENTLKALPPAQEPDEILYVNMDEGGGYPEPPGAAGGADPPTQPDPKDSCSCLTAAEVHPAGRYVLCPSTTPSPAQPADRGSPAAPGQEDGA

For `COc1ccc(CCc2cc(OC)c(OC)c(OC)c2)cc1O` [Erianin], the activity at 0.1 µM on Rsk2(h) was determined as 106%; on Rsk3(h), 108%; on EphA4(h), 93%; at Rsk1(h), 90%; on Snk(h), 109%; on CaMKIIα(h) it was 90%. The activity at 0.1 µM at EphA1(h) was 101%; on EphA5(h), 108%; at SGK(h) it was 122%; on EphB3(h), 95%; on CaMKIIδ(h), 103%; at ZIPK(h), 111%.

Regarding `COc1cc2oc(-c3ccc(O)c(O)c3)cc(=O)c2c(O)c1OC` [Cirsiliol], the activity at 10 µM came to 87% at FGFR4(h); 104% at CaMKIIβ(h); 124% on Aurora-A(h); 86% on Aurora-B(h); 108% at CK1γ2(h); 117% at EGFR(T790M)(h). Besides, the activity at 10 µM on BRK(h) amounted to 105%; on Flt4(h) it was 87%; on Axl(h), 97%; on DDR2(h), 106%; at HIPK2(h) it was 100%; at CDK7/cyclinH(h) it was 92%. Moreover, the activity at 10 µM at MELK(h) is 100%; at cKit(h), 93%; on CK1γ3(h), 104%; at HIPK3(h), 106%; on DAPK1(h), 103%.

Regarding `C=C1C(=O)[C@]23[C@H](O)[C@H]1CC[C@H]2[C@@]12CO[C@]3(O)[C@@H](O)[C@@H]1C(C)(C)CC[C@@H]2O` [Oridonin], the activity at 10 µM at SAPK2b(h) was 102%; at STK25(h), 105%; on Lck(h), 89%; on TAO2(h), 78%; on DMPK(h) it was 104%; on CDK12/cyclinK(h) it was 98%. Further, the activity at 10 µM worked out at 112% on ErbB2(h); 66% at TAO3(h); 85% at MAPKAP-K2(h); 57% at CDK2/cyclinE(h); 69% on CDK7/cyclinH/MAT1(h); 64% on TAO1(h). The activity at 10 µM at ATR/ATRIP(h) stood at 76%.
